Legend:
Type in all cases: in vivo
[1] = test system: palmer (palmer amaranth, palmer pigweed, Amaranthus palmeri); experiment: Test A preemergence soil spray, visual injury rating 0-100; settings: 10 days, 0 = no effect, 100 = complete control
Summary of the method: (§1)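 Compounds formulated in a non-phytotoxic solvent with surfactant are sprayed onto soil of freshly planted loam-sand pots ahead of emergence, or onto emerged plants 2-10 cm tall. After a 10-day greenhouse period, each species is scored visually for injury against untreated controls.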

[2] = test system: oat, wild (wild oat, Avena fatua); experiment: as above; settings: 10 days, 0 = no effect, 100 = complete control
Summary of the method: as §1

[3] = test system: blackgrass (Alopecurus myosuroides); experiment: as above; settings: 10 days, 0 = no effect, 100 = complete control
Summary of the method: as §1

[4] = test system: wheat (Triticum aestivum); experiment: as above; settings: 10 days, 0 = no effect, 100 = complete control
Summary of the method: as §1

[5] = test system: ragweed (common ragweed, Ambrosia artemisiifolia); experiment: as above; settings: 10 days, 0 = no effect, 100 = complete control
Summary of the method: as §1

kochia (Bassia scoparia) [6] = experiment: as above; settings: 10 days, 0 = no effect, 100 = complete control
Summary of the method: as §1

[7] = test system: green foxtail (Setaria viridis); experiment: as above; settings: 10 days, 0 = no effect, 100 = complete control
Summary of the method: as §1

[8] = test system: ryegrass, Italian (italian ryegrass, Lolium multiflorum); experiment: as above; settings: 10 days, 0 = no effect, 100 = complete control
Summary of the method: as §1

[9] = test system: barnyardgrass (Echinochloa crus-galli); experiment: as above; settings: 10 days, 0 = no effect, 100 = complete control
Summary of the method: as §1

corn (Zea mays) [10] = experiment: as above; settings: 10 days, 0 = no effect, 100 = complete control
Summary of the method: as §1

soybean (Glycine max) [11] = experiment: as above; settings: 10 days, 0 = no effect, 100 = complete control
Summary of the method: as §1

[12] = test system: palmer (palmer amaranth, palmer pigweed, Amaranthus palmeri); experiment: Test A postemergence application, visual injury rating 0-100; settings: 10 days
Summary of the method: as §1

[13] = test system: oat, wild (wild oat, Avena fatua); experiment: as above; settings: 10 days
Summary of the method: as §1

[14] = test system: blackgrass (Alopecurus myosuroides); experiment: as above; settings: 10 days
Summary of the method: as §1

[15] = test system: wheat (Triticum aestivum); experiment: as above; settings: 10 days
Summary of the method: as §1

[16] = test system: galium (catchweed bedstraw, Galium aparine); experiment: as above; settings: 10 days
Summary of the method: as §1

[17] = test system: ragweed (common ragweed, Ambrosia artemisiifolia); experiment: as above; settings: 10 days
Summary of the method: as §1

kochia (Bassia scoparia) [18] = experiment: as above; settings: 10 days
Summary of the method: as §1

[19] = test system: green foxtail (Setaria viridis); experiment: as above; settings: 10 days
Summary of the method: as §1

[20] = test system: ryegrass, Italian (italian ryegrass, Lolium multiflorum); experiment: as above; settings: 10 days
Summary of the method: as §1

[21] = test system: horseweed (Erigeron canadensis); experiment: as above; settings: 10 days
Summary of the method: as §1

[22] = test system: barnyardgrass (Echinochloa crus-galli); experiment: as above; settings: 10 days
Summary of the method: as §1

corn (Zea mays) [23] = experiment: as above; settings: 10 days
Summary of the method: as §1

soybean (Glycine max) [24] = experiment: as above; settings: 10 days
Summary of the method: as §1

[25] = test system: ducksalad (Heteranthera limosa); experiment: Test B flooded paddy test, visual plant response rating 0-100; settings: 250 g ai/ha, Flood, applied to paddy water, evaluated after 13 days
Summary of the method: (§2)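 Visual evaluation after 13 days. Water-applied treatment, 3 cm flood depth held constant, plants at 2-leaf stage at treatment.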

rice (Oryza sativa) = experiment: as above; settings: 250 g ai/ha, Flood, applied to paddy water, evaluated after 13 days
Summary of the method: as §2

[26] = test system: sedge, umbrella (small-flower umbrella sedge, Cyperus difformis); experiment: as above; settings: 250 g ai/ha, Flood, applied to paddy water, evaluated after 13 days
Summary of the method: as §2

[27] = test system: barnyardgrass (Echinochloa crusgalli); experiment: as above; settings: 250 g ai/ha, Flood, applied to paddy water, evaluated after 13 days
Summary of the method: as §2

[28] = 31 g ai/ha, postemergence, 0 = no effect, 100 = complete control
[29] = Postemergence, 125 g ai/ha, 0 is no effect, 100 is complete control

With `CC1(C(=O)NC2C=CC(C(=O)OCC(F)(F)F)C2)CN(c2cc(F)cc(F)c2)C(=O)O1` (stereo not shown) [Compound 55] the “Amaranth, Palmer plant response rating (0-100)” value ([1]; 31 g ai/ha) was 20, the “Amaranth, Palmer plant response rating (0 to 100 scale)” value ([1]; 125 g ai/ha) was 70 and the “Oat, Wild plant response rating (0-100)” value ([2]; 31 g ai/ha) was 60. The “Oat, Wild plant response rating (0 to 100 scale)” value ([2]; 125 g ai/ha) was 90, the “Blackgrass plant response rating (0-100)” value ([3]; 31 g ai/ha) was 20 and the “Blackgrass plant response rating (0 to 100 scale)” value ([3]; 125 g ai/ha) was 90. For the same compound, the “Wheat plant response rating (0-100)” value ([4]; 31 g ai/ha) was 90, the “Wheat plant response rating (0 to 100 scale)” value ([4]; 125 g ai/ha) was 100 and the “Ragweed plant response rating (0-100)” value ([5]; 31 g ai/ha) was 0. The “Ragweed plant response rating (0 to 100 scale)” value ([5]; 125 g ai/ha) was 0, the “Kochia plant response rating (0-100)” value (kochia (Bassia scoparia) [6]; 31 g ai/ha) was 0 and the “Kochia plant response rating (0 to 100 scale)” value (kochia (Bassia scoparia) [6]; 125 g ai/ha) was 90. The “Foxtail, Green plant response rating (0-100)” value ([7]; 31 g ai/ha) was 0, the “Foxtail, Green plant response rating (0 to 100 scale)” value ([7]; 125 g ai/ha) was 90 and the “Ryegrass, Italian plant response rating (0-100)” value ([8]; 31 g ai/ha) was 80. The “Ryegrass, Italian plant response rating (0 to 100 scale)” value ([8]; 125 g ai/ha) was 90, the “Barnyardgrass plant response rating (0-100)” value ([9]; 31 g ai/ha) was 20 and the “Barnyardgrass plant response rating (0 to 100 scale)” value ([9]; 125 g ai/ha) was 100. For the same compound, the “Corn plant response rating (0-100)” value (corn (Zea mays) [10]; 31 g ai/ha) was 20, the “Corn plant response rating (0 to 100 scale)” value (corn (Zea mays) [10]; 125 g ai/ha) was 40 and the “Soybean plant response rating (0-100)” value (soybean (Glycine max) [11]; 31 g ai/ha) was 40. For the same compound, the “Soybean plant response rating (0 to 100 scale)” value (soybean (Glycine max) [11]; 125 g ai/ha) was 80, the “Amaranth, Palmer plant response rating (0-100)” value [12, 28] was 80 and the “Amaranth, Palmer / Pigweed, Palmer plant response rating (0 to 100 scale)” value [12, 29] was 90. For the same compound, the “Oat, Wild plant response rating (0-100)” value [13, 28] was 90, the “Oat, Wild plant response rating (0 to 100 scale)” value [13, 29] was 90 and the “Blackgrass plant response rating (0-100)” value [14, 28] was 50. The “Blackgrass plant response rating (0 to 100 scale)” value [14, 29] was 100, the “Wheat plant response rating (0-100)” value [15, 28] was 80 and the “Wheat plant response rating (0 to 100 scale)” value [15, 29] was 90. The “Galium plant response rating (0-100)” value [16, 28] was 80, the “Galium plant response rating (0 to 100 scale)” value [16, 29] was 80 and the “Ragweed plant response rating (0-100)” value [17, 28] was 50. The “Ragweed plant response rating (0 to 100 scale)” value [17, 29] was 60, the “Kochia plant response rating (0-100)” value (kochia (Bassia scoparia) [18]; [28]) was 80 and the “Kochia plant response rating (0 to 100 scale)” value (kochia (Bassia scoparia) [18]; [29]) was 80. For the same compound, the “Foxtail, Green plant response rating (0-100)” value [19, 28] was 20, the “Foxtail, Green plant response rating (0 to 100 scale)” value [19, 29] was 80 and the “Ryegrass, Italian plant response rating (0-100)” value [20, 28] was 90. The “Ryegrass, Italian plant response rating (0 to 100 scale)” value [20, 29] was 90, the “Horseweed plant response rating (0-100)” value [21, 28] was 70 and the “Horseweed plant response rating (0 to 100 scale)” value [21, 29] was 80. For the same compound, the “Barnyardgrass plant response rating (0-100)” value [22, 28] was 90, the “Barnyardgrass plant response rating (0 to 100 scale)” value [22, 29] was 100 and the “Corn plant response rating (0-100)” value (corn (Zea mays) [23]; [28]) was 100. The “Corn plant response rating (0 to 100 scale)” value (corn (Zea mays) [23]; [29]) was 100, the “Soybean plant response rating (0-100)” value (soybean (Glycine max) [24]; [28]) was 70 and the “Soybean plant response rating (0 to 100 scale)” value (soybean (Glycine max) [24]; [29]) was 70. The “Plant response rating, Ducksalad (0 to 100 scale, 0 is no effect and 100 is complete control)” value [25] was 85, the “Plant response rating, Rice (0 to 100 scale, 0 is no effect and 100 is complete control)” value (rice (Oryza sativa)) was 15 and the “Plant response rating, Sedge, Umbrella (0 to 100 scale, 0 is no effect and 100 is complete control)” value [26] was 45. The “Plant response rating, Barnyardgrass (0 to 100 scale, 0 is no effect and 100 is complete control)” value [27] was 90.

Reference: patent publication US20260285850A1, “SUBSTITUTED OXAZOLIDINONES AND IMIDAZOLINONES AS HERBICIDES” (FMC CORPORATION, priority 2023, published 2026)
